This passage reports EC50 results from US20250313569A1, “Pharmaceutical Compounds And Compositions As Modulators Of MAS-Related G-Protein Receptor X2” (Enanta Pharmaceuticals, Inc., priority 2024, published 2025).

One experiment addresses T1, MRGPRX2 LAD2 (Homo sapiens, UniProt Q96LB1).
T1 construct: host or cells: LAD2 human mast cells
T1 sequence (Q96LB1 1-330): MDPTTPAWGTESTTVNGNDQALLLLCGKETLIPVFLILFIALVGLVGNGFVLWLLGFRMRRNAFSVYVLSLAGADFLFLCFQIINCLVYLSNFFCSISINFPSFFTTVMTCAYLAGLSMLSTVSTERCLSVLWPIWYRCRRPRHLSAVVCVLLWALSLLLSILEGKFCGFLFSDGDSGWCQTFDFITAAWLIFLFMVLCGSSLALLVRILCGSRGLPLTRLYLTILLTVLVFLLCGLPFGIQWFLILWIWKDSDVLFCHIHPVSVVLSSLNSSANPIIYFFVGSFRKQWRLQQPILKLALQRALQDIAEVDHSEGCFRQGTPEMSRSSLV
The experiment in a line: LAD2 β-hexosaminidase release assay (degranulation), Cortistatin-14 at EC75. In kind it is cell-based. The note with it: LAD2 cells; 1 hour compound incubation, Cortistatin-14 at EC75 for 30 minutes; percent degranulation (β-hexosaminidase). As for the experimental part:
LAD2 cells obtained from the NIH were cultured in StemPro34 (Gibco) serum-free media supplemented with GlutaMax, penicillin and streptomycin, and 100 ng/mL SCF (Invitrogen). Cells were maintained in a 37° C., 5% CO2 humidified incubator at a concentration of 2-5E5 cells/mL, with hemidepletion once a week.
One day prior to the assay, cells were starved of SCF at a concentration of 2.3E5 cells/mL. On the day of the assay cells were washed twice in Tyrode's Buffer containing 0.04% BSA (assay buffer) and plated in a 96 well-v-bottom assay plate at 20,000 cells per well in 80 μL of assay buffer. Compounds were solubilized at 10 mM DMSO and added as a 10-fold overconcentrated 8-point curve in assay buffer in a volume of 10 μL using the JANUS liquid handler. Assay plates were incubated for 1 hour at 37° C. Cortistatin-14 was diluted in assay buffer to […] its predetermined EC75 and added to the assay plates in a volume of 10 μL. Assay plates were incubated at 37° C. for 30 minutes. After incubation, cells were pelleted and 50 μL of supernatant from each well was transferred to a 96 well flat bottom plate containing 100 μL of substrate solution (3.5 mg/mL p-Nitrophenyl-N-acetyl-β-D-glucosaminide (Sigma Aldrich) in 40 mM Citrate Buffer (Thermo Fisher)). The remaining cell pellets were lysed with 150 μL of 0.1% Triton-X-100 and mixed thoroughly. 50 μL of lysate was transferred to a 96-well flat bottom plate containing 100 μL of substrate solution. Plates with supernatants and lysates were incubated at 37° C. for 90 minutes prior to addition of 50 μL of 400 mM Glycine buffer (pH 10.7). The plates were read on a Perkin Elmer Envision plate reader at an Abs of 405 nanometers. Percent degranulation was calculated and Xlfit was used to calculate an EC50 value for each compound using a 4-parameter logistic curve fitting model. EC50 ranges are reported as follows: A<100 nM; B 0.1-1 μM; C>1 μM.

In the next experiment the target is T2, human MRGPRX2 (Homo sapiens, UniProt Q96LB1).
T2 construct: expressed in transfected cells; host or cells: HEK293
T2 sequence (Q96LB1 1-330): T1 sequence (Q96LB1 1-330)
In words: MRGPRX2 IP-1 Gq HTRF assay in HEK293 cells stably expressing human MRGPRX2, Cortistatin-14 at EC75. The note with it: 2 hours at 37° C., cellular IP-1. In kind it is cell-based. As for the experimental part: HEK293 cells stably expressing human MRGPRX2 were grown in Dulbecco's Modified Eagle Medium (DMEM) supplemented with 10% fetal bovine serum (FBS), 1% Glutamax, and 1 μg/mL of puromycin. Cells were maintained in a 37° C., 5% CO2 humidified incubator.
Cells were plated in a 384-well assay plate at a density of 20,000 cells per well overnight. Compounds were solubilized at 10 mM in DMSO and added as a 10-point curve using an ECHO acoustic liquid handler. On the day of the assay, Cortistatin-14 was diluted in assay buffer (provided by IP-One-Gq-HTRF kit purchased from Cisbio, 62IPAPEJ) and added to the assay plate at a final concentration corresponding to the predetermined EC75. Plates were incubated at 37° C. for 2 hours prior to addition of HTRF detection reagents per the manufacturer's instructions. The plates were read on a Perkin Elmer Envision plate reader. The HTRF ratio and cellular IP-1 levels were calculated. XLfit was used to calculate an EC50 value for each compound using a 4-parameter logistic curve fitting model. EC50 ranges are reported as follows: A<100 nM; B 0.1-1 μM; C>1 μM.

As for `CS(=O)(=O)Nc1cccc(C(=O)N[C@@H]2COC[C@H](Nc3cc(C(F)(F)F)nc4ccc(Cl)cc34)C2)c1` (racemic) [Example 44, N-(cis-5-((6-chloro-2-(trifluoromethyl)quinolin-4-yl)amino)tetrahydro-2H-pyran-3-yl)-3-(methylsulfonamido)benzamide], the EC50 on MRGPRX2 LAD2 and at human MRGPRX2 was under 0.1 µM each time.

As to `CS(=O)(=O)Nc1cccc(C(=O)N[C@H]2C[C@@H](Nc3cc(C(F)(F)F)nc4ccc(Cl)cc34)CN(C(=O)c3ccccc3)C2)c1` [Example 1], the results for the EC50 on MRGPRX2 LAD2 and on human MRGPRX2 were under 0.1 µM and 0.1 to 1 µM, respectively.

Take `CC(=O)N1C[C@@H](NC(=O)c2cccc(NS(C)(=O)=O)c2)C[C@@H](Nc2cc(C(F)(F)F)nc3ccc(Cl)cc23)C1` [Example 2]: the EC50 on MRGPRX2 LAD2 and at human MRGPRX2 was under 0.1 µM in each case.

On to `CS(=O)(=O)Nc1cccc(C(=O)N[C@H]2C[C@@H](Nc3cc(C(F)(F)F)nc4ccc(Cl)cc34)CN(S(C)(=O)=O)C2)c1` [Example 3], for which the 50% effective concentration (EC50) – broadly, the concentration that produces a half-maximal response – on MRGPRX2 LAD2 was under 0.1 µM; on human MRGPRX2, 0.1 to 1 µM.

Regarding `CS(=O)(=O)Nc1cccc(C(=O)N[C@H]2C[C@@H](Nc3cc(C(F)(F)F)nc4ccc(Cl)cc34)CN(S(=O)(=O)c3ccccc3)C2)c1` [Example 4], the EC50 at MRGPRX2 LAD2 was under 0.1 µM; at human MRGPRX2 it was 0.1 to 1 µM.

On to `COC(=O)N1C[C@@H](NC(=O)c2cccc(NS(C)(=O)=O)c2)C[C@@H](Nc2cc(C(F)(F)F)nc3ccc(Cl)cc23)C1` [Example 5], for which the EC50 at MRGPRX2 LAD2 and on human MRGPRX2 was under 0.1 µM each time.

Consider `CS(=O)(=O)Nc1cccc(C(=O)N[C@H]2C[C@@H](Nc3cc(C(F)(F)F)nc4ccc(Cl)cc34)CN(C(=O)C(F)(F)F)C2)c1` [Example 8], for which the EC50 at MRGPRX2 LAD2 was under 0.1 µM; on human MRGPRX2, 0.1 to 1 µM.

For `CNC(=O)N1C[C@@H](NC(=O)c2cccc(NS(C)(=O)=O)c2)C[C@@H](Nc2cc(C(F)(F)F)nc3ccc(Cl)cc23)C1` [Example 9], the EC50 at MRGPRX2 LAD2 and on human MRGPRX2 was 0.1 to 1 µM throughout.

On to `CN(C)C(=O)N1C[C@@H](NC(=O)c2cccc(NS(C)(=O)=O)c2)C[C@@H](Nc2cc(C(F)(F)F)nc3ccc(Cl)cc23)C1` [Example 10], for which the EC50 was under 0.1 µM on MRGPRX2 LAD2 and 0.1 to 1 µM on human MRGPRX2.

For the molecule `CC(=O)N1C[C@@H](NC(=O)c2cccc(C#N)c2)C[C@@H](Nc2cc(C(F)(F)F)nc3ccc(Cl)cc23)C1` [Example 24], the EC50 on MRGPRX2 LAD2 and on human MRGPRX2 was under 0.1 µM each time.

`CC(=O)N1C[C@@H](NC(=O)c2cnn(C(F)F)c2)C[C@@H](Nc2cc(C(F)(F)F)nc3ccc(Cl)cc23)C1` [Example 40] registered a half-maximal effective concentration (EC50) on human MRGPRX2 of under 0.1 µM.

Molecule `CS(=O)(=O)Nc1cccc(C(=O)N[C@@H]2CNC[C@H](Nc3ccc(C#N)c(C(F)(F)F)c3)C2)c1` [Example 45] showed an EC50 on human MRGPRX2 of over 1 µM.

Consider `CC(=O)N1C[C@@H](NC(=O)c2cccc(NS(C)(=O)=O)c2)C[C@@H](Nc2ccc(C#N)c(C(F)(F)F)c2)C1` [Example 46], for which the EC50 on human MRGPRX2 was over 1 µM.

`CC(=O)N1C[C@H](Nc2cc(C(F)(F)F)nc3ccc(Cl)cc23)C[C@H](N(C)C(=O)c2cnn(C)c2)C1` [Example 47] yielded an EC50 on human MRGPRX2 of over 1 µM.

As to `CN1C[C@@H](NC(=O)c2cccc(NS(C)(=O)=O)c2)C[C@@H](Nc2cc(C(F)(F)F)nc3ccccc23)C1` [Example 51], the EC50 on human MRGPRX2 is over 1 µM.

`CN1C[C@@H](NC(=O)c2cccc(NS(C)(=O)=O)c2)C[C@@H](N(C)c2cc(C(F)(F)F)nc3ccccc23)C1` [Example 52] displayed an EC50 at human MRGPRX2 of over 1 µM.

In the case of `CS(=O)(=O)Nc1cccc(NC(=O)[C@@H]2COC[C@H](Nc3cc(C(F)(F)F)nc4ccc(Cl)cc34)C2)c1` [Example 53], the EC50 at human MRGPRX2 is under 0.1 µM.

`CS(=O)(=O)Nc1cccc(-c2cn([C@@H]3CNC[C@H](Nc4cc(C(F)(F)F)nc5ccc(Cl)cc45)C3)nn2)c1` [Example 54, N-(3-(1-((3S,5R)-5-((6-Chloro-2-(trifluoromethyl)quinolin-4-yl)amino)piperidin-3-yl)-1H-1,2,3-triazol-4-yl)phenyl) methanesulfonamide] displayed an EC50 at human MRGPRX2 of 0.1 to 1 µM.

`CC(=O)N1C[C@H](Nc2cc(C(F)(F)F)nc3ccc(Cl)cc23)C[C@H](n2cc(-c3cccc(NS(C)(=O)=O)c3)nn2)C1` [Example 55] gave an EC50 on human MRGPRX2 of 0.1 to 1 µM.

With `COc1cc(C(=O)N[C@H]2C[C@@H](Nc3cc(C(F)(F)F)nc4ccc(Cl)cc34)CN(C(C)=O)C2)cc2cn(C(F)F)nc12` [Example 56], on human MRGPRX2, the EC50 is under 0.1 µM.

`CCn1cc2cc(C(=O)N[C@H]3C[C@@H](Nc4cc(C(F)(F)F)nc5ccc(Cl)cc45)CN(C(C)=O)C3)ccc2n1` [Example 57]: the EC50 on human MRGPRX2 was under 0.1 µM.

The molecule `CC(=O)N1C[C@@H](NC(=O)c2ccc3[nH]ncc3c2)C[C@@H](Nc2cc(C(F)(F)F)nc3ccc(Cl)cc23)C1` [Example 58] showed an EC50 at human MRGPRX2 of under 0.1 µM.

With `CC(=O)N1C[C@@H](NC(=O)c2cn(C(F)F)nc2C(F)F)C[C@@H](Nc2cc(C(F)(F)F)nc3ccc(Cl)cc23)C1` [Example 59], the EC50 on human MRGPRX2 was under 0.1 µM.

As for `COc1cc(C(=O)N[C@H]2C[C@@H](Nc3cc(C(F)(F)F)nc4ccc(Cl)cc34)CN(C(C)=O)C2)ccc1OC1CC1` [Example 60], at human MRGPRX2, the EC50 is 0.1 to 1 µM.

As for `CC(=O)N1C[C@@H](NC(=O)c2cnn(CC3CC3)c2)C[C@@H](Nc2cc(C(F)(F)F)nc3ccc(Cl)cc23)C1` [Example 61], on human MRGPRX2, the EC50 is under 0.1 µM.

For the molecule `CC(=O)N1C[C@@H](NC(=O)c2ccc(C)nc2)C[C@@H](Nc2cc(C(F)(F)F)nc3ccc(Cl)cc23)C1` [Example 62], at human MRGPRX2, the EC50 is 0.1 to 1 µM.

For the molecule `CC(=O)N1C[C@@H](NC(=O)c2ccc(C(F)(F)F)nc2)C[C@@H](Nc2cc(C(F)(F)F)nc3ccc(Cl)cc23)C1` [Example 63], the EC50 on human MRGPRX2 was 0.1 to 1 µM.

In turn, `CC(=O)N1C[C@@H](NC(=O)c2cnn(CC(C)(C)O)c2)C[C@@H](Nc2cc(C(F)(F)F)nc3ccc(Cl)cc23)C1` [Example 64] registered an EC50 on human MRGPRX2 of under 0.1 µM.

For `CC(=O)N1C[C@@H](NC(=O)c2cn(CC(C)(C)O)nc2Cl)C[C@@H](Nc2cc(C(F)(F)F)nc3ccc(Cl)cc23)C1` [Example 65], the EC50 on human MRGPRX2 was under 0.1 µM.

For the molecule `CC(=O)N1C[C@@H](NC(=O)c2ccc(OC(F)(F)F)cc2)C[C@@H](Nc2cc(C(F)(F)F)nc3ccc(Cl)cc23)C1` [Example 66], on human MRGPRX2, the EC50 fell in the range of 0.1 to 1 µM.

At human MRGPRX2, `CC(=O)N1C[C@@H](NC(=O)c2ccc(C(F)(F)F)cc2)C[C@@H](Nc2cc(C(F)(F)F)nc3ccc(Cl)cc23)C1` [Example 67] showed an EC50 of 0.1 to 1 µM.

Consider `CC(=O)N1C[C@@H](NC(=O)c2cnn(C3CCCCC3)c2)C[C@@H](Nc2cc(C(F)(F)F)nc3ccc(Cl)cc23)C1` [Example 68], for which the EC50 at human MRGPRX2 is under 0.1 µM.

Regarding `CC(=O)N1C[C@@H](NC(=O)c2cnn(-c3ccccc3)c2)C[C@@H](Nc2cc(C(F)(F)F)nc3ccc(Cl)cc23)C1` [Example 69], the EC50 on human MRGPRX2 is 0.1 to 1 µM.

In turn, `CC(=O)N1C[C@@H](NC(=O)c2cnn(-c3ccc(F)cc3)c2)C[C@@H](Nc2cc(C(F)(F)F)nc3ccc(Cl)cc23)C1` [Example 70] showed an EC50 on human MRGPRX2 of 0.1 to 1 µM.

In the case of `CC(=O)N1C[C@@H](Nc2nnc(-c3ccc(F)cc3)o2)C[C@@H](Nc2cc(C(F)(F)F)nc3ccc(Cl)cc23)C1` [Example 71], the EC50 on human MRGPRX2 was over 1 µM.

In the case of `CS(=O)(=O)Nc1cccc(C(=O)N[C@H]2C[C@@H](Nc3cc(C(F)(F)F)nc4ccc(Cl)cc34)CN(CC(F)F)C2)c1` [Example 73], the EC50 at human MRGPRX2 was under 0.1 µM.

Turning to `O=C(N[C@H]1C[C@@H](Nc2cc(C(F)(F)F)nc3ccc(Cl)cc23)CS(=O)(=O)C1)c1ccc(F)cc1` [Example 140], on human MRGPRX2, the concentration for a half-maximal effect (EC50) was over 1 µM.
